Assay results taken from US20260116910A1, “POLYCYCLIC COMPOUNDS AND METHODS THEREOF” (HEPAITECH (BEIJING) BIOPHARMA TECHNOLOGY CO., LTD., priority 2021, published 2026).
Where two headings read alike, the source gives them in different places.

Key:
human FXR (NR1H4) = target: T1, human FXR (NR1H4) (Homo sapiens, UniProt Q96RI1); experiment: Human FXR (NR1H4) agonist assessment, FXRE-NanoLuc reporter in HEK293T cells; assay type: cell-based; conditions: for EC50: read-out: EC50
T1 sequence (Q96RI1 1-476 isoform Q96RI1-1): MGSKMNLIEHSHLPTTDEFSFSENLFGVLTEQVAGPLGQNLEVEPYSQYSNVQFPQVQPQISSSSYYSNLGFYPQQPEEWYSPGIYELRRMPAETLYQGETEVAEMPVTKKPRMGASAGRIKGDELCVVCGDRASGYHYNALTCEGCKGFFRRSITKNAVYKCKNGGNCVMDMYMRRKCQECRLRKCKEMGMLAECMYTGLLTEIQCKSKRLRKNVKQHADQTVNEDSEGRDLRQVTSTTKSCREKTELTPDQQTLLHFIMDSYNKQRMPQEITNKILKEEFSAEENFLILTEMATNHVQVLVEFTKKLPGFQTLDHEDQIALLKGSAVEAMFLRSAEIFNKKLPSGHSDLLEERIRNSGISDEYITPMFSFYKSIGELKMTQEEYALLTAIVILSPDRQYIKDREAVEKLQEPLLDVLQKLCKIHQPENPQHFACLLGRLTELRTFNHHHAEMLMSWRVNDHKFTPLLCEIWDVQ
Description: As those skilled in the art appreciate, various technologies are available for assessment of FXR activation in accordance with the present disclosure. […] Human FXR (NR1H4) agonist assessment (see, e.g., Yu et al. eLife 2019; 8: e48431): HEK293T cells stably expressing human FXR and containing FXR response element (FXRE)-NanoLuc reporter were cultured in DMEM medium supplemented with 10% FBS and 1% PS, at 37° C. in a humidified atmosphere with 5% CO2. Cells were detached by centrifuging (1000 rpm, 3 min). The pellet was re-suspended in medium, and cell density was adjusted to about 1×10^6 cells/mL. 100 μL suspension was seeded to each well of a white-walled, clear-bottom 96-well microplates (cell plate). Cells in microplates were cultured overnight.
In the following day, cells were grown to higher than 95% density in each well. Culture medium was replaced, and compounds were added to the wells. 0.01% DMSO (v/v) served as negative control. Plates were incubated at 37° C. in 5% CO2 for 24 hr.
In the following day, a 10 μL aliquot of cell culture medium was removed from each well and combined with 40 μL culture medium plus […] assay buffer (containing 20 mM of the luciferase substrate coelenterazine). After 5 min incubation, luminescence was measured using an EnVision plate reader (PerkinElmer).
In some embodiments, gradient diluted solutions of several concentrations were used to treat cells and corresponding responses were used to fit sigmoid function and to derive EC50 in Origin.

MRGPRX4 = MRGPRX4 (Homo sapiens, UniProt Q96LA9); experiment: MRGPRX4 activation, Fluo-8 Ca2+ FLIPR assay in HEK293T cells stably expressing MRGPRX4; assay type: cell-based; conditions: for EC50: MRGPRX4 activation, Ca2+ fluorescence
Description: In some embodiments, cells were cultured in poly-D-Lys coated blacked walled, clear-bottom 96-well microplates. HEK293T cells stably expressing MRGPRX4 were cultured in DMEM medium supplemented with 10% FBS and 1% PS, at 37° C. in a humidified atmosphere with 5% CO2. Cells were detached by centrifuging (1000 rpm, 3 min). The pellet was re-suspended in medium, and cell density was adjusted to about 1×10^6 cells/mL. 100 μL suspension was seeded to each well of a microplates (cell plate). Cells in the microplates were cultured overnight. In the following day, cells were grown to higher than 95% density in each well.
Ca^2+ fluorescent dye loading: Fluo-8 AM (Screen Quest Fluo-8 AM Calcium Assay Kit, AAT Bioquest, cat. #: 21083) was diluted in HHBS buffer and adjusted to 2 μM (dye buffer). Medium in each well was changed into 50 μL dye buffer carefully. After incubation for 40-60 min under room temperature, the dye buffer was changed into 50 μL HHBS buffer.
The concentration of solution should be determined according to the protocol settings and experimental needs (e.g., Log[M]=−4, −5, −6, −7, −8, and −9). Prepare 2× serial dilution series of compounds (at least 75 μL per well).
A fluorescent signal baseline was measured using FLIPR®Tetra for 30 s. Then 50 μL of the chemical solution would be added to the cell plate. The fluorescent signal would be measured for another 150 s.
Activity of each compound was calculated by the fluorescence change (dF/F0). Curves were fitted to obtain EC50 values. In some embodiments, at least 3 repeats were performed to obtain the average values. For assessment of a compound, gradient diluted solutions of different concentrations were used to treat cells and corresponding responses were used to fit sigmoid function and to derive EC50 in Origin. In some embodiments, assessed concentrations were or included about 10^−4, 10^−4.5, 10^−5, 10^−5.5, 10^−6, 10^−6.5, 10^−7, 10^−8, and/or 10^−9 M; for example, in many instances, assessed concentrations included about 10^−5, 10^−6, 10^−7 and 10^−8 M. In some embodiments, assessed concentrations were about 10^−4, 10^−4.5, 10^−5, 10^−5.5, 10^−6, 10^−7, 10^−8, and 10^−9 M. In some embodiments, assessed concentrations were about 10^−4, 10^−5, 10^−6, 10^−7, 10^−8, and 10^−9 M. In some embodiments, assessed concentrations were about 10^−4, 10^−4.5, 10^−5, 10^−5.5, 10^−6, and 10^−7 M. In some embodiments, assessed concentrations were about 2000000, 1000000, 500000, 250000, 125000, 62500, 31250, 15625, 7813, 3906 nM. […] In some embodiments, assessed concentrations were about 30000, 10000, 3333, 1111, 370, 123, 41, 14, 4.6, 1.5 nM.

[1] = FXR activation, HEK293T FXRE-NanoLuc reporter, 24 hr

MRGPRX4, sequence (Q96LA9 whole entry): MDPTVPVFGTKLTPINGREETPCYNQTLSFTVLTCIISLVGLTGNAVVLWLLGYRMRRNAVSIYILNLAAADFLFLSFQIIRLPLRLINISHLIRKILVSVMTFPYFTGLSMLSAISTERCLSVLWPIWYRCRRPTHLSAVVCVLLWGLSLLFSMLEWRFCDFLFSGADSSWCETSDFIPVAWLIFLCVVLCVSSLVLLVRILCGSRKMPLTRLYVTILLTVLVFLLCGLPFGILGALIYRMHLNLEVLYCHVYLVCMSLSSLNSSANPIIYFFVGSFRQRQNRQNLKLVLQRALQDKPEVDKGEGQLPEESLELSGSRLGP

CC[C@H]1[C@@H](O)[C@@H]2[C@H](CC[C@]3(C)[C@@H]([C@H](C)CCNC(=O)NS(=O)(=O)c4ccc(C(C)(C)C(=O)OC)cc4)CC[C@@H]23)[C@@]2(C)CCCC[C@@H]12 [5-9]
Efficacy (maximum measured induction of NanoLuc, normalized to CDCA set as 100%) (human FXR (NR1H4); [1]): B (300%<efficacy <=400%) | EC50 (human FXR (NR1H4); [1]): < 1000 nM

CC[C@H]1[C@@H](O)[C@@H]2[C@H](CC[C@]3(C)[C@@H]([C@H](C)CCNC(=O)NS(=O)(=O)c4ccc(C(F)(F)F)cc4)CC[C@@H]23)[C@@]2(C)CCCC[C@@H]12 [5-19]
Efficacy (maximum measured induction of NanoLuc, normalized to CDCA set as 100%) (human FXR (NR1H4); [1]): C (100%<efficacy <=300%) | EC50 (human FXR (NR1H4); [1]): < 1000 nM

CC[C@H]1[C@@H](O)[C@@H]2[C@H](CC[C@]3(C)[C@@H]([C@H](C)CCNC(=O)NS(=O)(=O)C[C@]45CCC(CC4=O)C5(C)C)CC[C@@H]23)[C@@]2(C)CCCC[C@@H]12 [5-27]
Efficacy (maximum measured induction of NanoLuc, normalized to CDCA set as 100%) (human FXR (NR1H4); [1]): A (efficacy >400%) | EC50 (human FXR (NR1H4); [1]): < 1000 nM

CC[C@H]1[C@@H](O)[C@@H]2[C@H](CC[C@]3(C)[C@@H]([C@H](C)CCN)CC[C@@H]23)[C@@]2(C)CCCC[C@@H]12 [6-1]
Efficacy (maximum measured induction of NanoLuc, normalized to CDCA set as 100%) (human FXR (NR1H4); [1]): B (300%<efficacy <=400%) | EC50 (human FXR (NR1H4); [1]): < 1000 nM

CC[C@H]1[C@@H](O)[C@@H]2[C@H](CC[C@]3(C)[C@@H]([C@H](C)CCNC(=S)NS(=O)(=O)c4ccc(C(C)(C)CF)cc4)CC[C@@H]23)[C@@]2(C)CCCC[C@@H]12 [7-2]
Efficacy (maximum measured induction of NanoLuc, normalized to CDCA set as 100%) (human FXR (NR1H4)): B (key: A: efficacy >400%; B: 300%<efficacy <=400%; C: 100%<efficacy <=300%; D: efficacy <=100%) | EC50 (human FXR (NR1H4); [1]): < 1000 nM

C[C@H](CCC(=O)O)[C@H]1CC[C@H]2[C@@H]3[C@H](O)C[C@@H]4C[C@H](O)CC[C@]4(C)[C@H]3CC[C@]12C [CDCA, chenodeoxycholic acid, reference compound]
MRGPRX4 activation, fluorescence change (dF/F0), Average (MRGPRX4; Conc. (Log[M]) −4): 1.098 | MRGPRX4 activation, fluorescence change (dF/F0), Average (MRGPRX4; Conc. (Log[M]) −4.5): 0.586 | MRGPRX4 activation, fluorescence change (dF/F0), Average (MRGPRX4; Conc. (Log[M]) −5): 0.082 | MRGPRX4 activation, fluorescence change (dF/F0), Average (MRGPRX4; Conc. (Log[M]) −5.5): −0.017 | MRGPRX4 activation, fluorescence change (dF/F0), Average (MRGPRX4; Conc. (Log[M]) −6): −0.057 | MRGPRX4 activation, fluorescence change (dF/F0), Average (MRGPRX4; Conc. (Log[M]) −7): −0.044 | MRGPRX4 activation, fluorescence change (dF/F0), Average (MRGPRX4; Conc. (Log[M]) −8): −0.049 | MRGPRX4 activation, fluorescence change (dF/F0), Average (MRGPRX4; Conc. (Log[M]) −9): −0.070

C[C@H](CCC(=O)O)[C@H]1CC[C@H]2[C@@H]3CC[C@@H]4C[C@H](O)CC[C@]4(C)[C@H]3C[C@H](O)[C@]12C [DCA, deoxycholic acid, reference compound]
Activation (%) (MRGPRX4; E3-8-1, 5 nM, n = 1): 1.93% | Activation (%) (MRGPRX4; E3-8-1, 5 nM, n = 2): 0.08% | Activation (%) (MRGPRX4; E3-8-1, 15 nM, n = 1): 1.01% | Activation (%) (MRGPRX4; E3-8-1, 15 nM, n = 2): 0.39% | Activation (%) (MRGPRX4; E3-8-1, 46 nM, n = 1): 2.24% | Activation (%) (MRGPRX4; E3-8-1, 46 nM, n = 2): 0.70% | Activation (%) (MRGPRX4; E3-8-1, 412 nM, n = 1): 3.48% | Activation (%) (MRGPRX4; E3-8-1, 412 nM, n = 2): 0.70% | Activation (%) (MRGPRX4; E3-8-1, 1235 nM, n = 1): 14.9% | Activation (%) (MRGPRX4; E3-8-1, 1235 nM, n = 2): 6.58% | Activation (%) (MRGPRX4; E3-8-1, 3704 nM, n = 1): 37.5% | Activation (%) (MRGPRX4; E3-8-1, 3704 nM, n = 2): 30.1% | Activation (%) (MRGPRX4; E3-8-1, 11111 nM, n = 1): 73.8% | Activation (%) (MRGPRX4; E3-8-1, 11111 nM, n = 2): 56.4% | Activation (%) (MRGPRX4; E3-8-1, 33333 nM, n = 1): 95.1% | Activation (%) (MRGPRX4; E3-8-1, 33333 nM, n = 2): 98.5% | Activation (%) (MRGPRX4; E3-8-1, 100000 nM, n = 1): 96.4% | Activation (%) (MRGPRX4; E3-8-1, 100000 nM, n = 2): 107.2%

CC[C@H]1[C@@H](O)[C@@H]2[C@H](CC[C@]3(C)[C@@H]([C@H](C)CCC(=O)O)CC[C@@H]23)[C@@]2(C)CC[C@@H](O)C[C@@H]12 [OCA, obeticholic acid, reference compound]
Activation (%) (MRGPRX4; E3-8-1, 3906 nM, n = 1): 3.48% | Activation (%) (MRGPRX4; E3-8-1, 3906 nM, n = 2): 4.41% | Activation (%) (MRGPRX4; E3-8-1, 7813 nM, n = 1): 3.48% | Activation (%) (MRGPRX4; E3-8-1, 7813 nM, n = 2): 4.10% | Activation (%) (MRGPRX4; E3-8-1, 15625 nM, n = 1): 6.58% | Activation (%) (MRGPRX4; E3-8-1, 15625 nM, n = 2): 9.06% | Activation (%) (MRGPRX4; E3-8-1, 31250 nM, n = 1): 13.7% | Activation (%) (MRGPRX4; E3-8-1, 31250 nM, n = 2): 25.8% | Activation (%) (MRGPRX4; E3-8-1, 62500 nM, n = 1): 65.7% | Activation (%) (MRGPRX4; E3-8-1, 62500 nM, n = 2): 49.9% | Activation (%) (MRGPRX4; E3-8-1, 125000 nM, n = 1): 100.4% | Activation (%) (MRGPRX4; E3-8-1, 125000 nM, n = 2): 85.8% | Activation (%) (MRGPRX4; E3-8-1, 250000 nM, n = 1): 104.4% | Activation (%) (MRGPRX4; E3-8-1, 250000 nM, n = 2): 100.4% | Activation (%) (MRGPRX4; E3-8-1, 500000 nM, n = 1): 138.8% | Activation (%) (MRGPRX4; E3-8-1, 500000 nM, n = 2): 110.9% | Activation (%) (MRGPRX4; E3-8-1, 1000000 nM, n = 1): 151.8% | Activation (%) (MRGPRX4; E3-8-1, 1000000 nM, n = 2): 149.6% | Activation (%) (MRGPRX4; E3-8-1, 2000000 nM, n = 1): 191.4% | Activation (%) (MRGPRX4; E3-8-1, 2000000 nM, n = 2): 158.9% | EC50 (MRGPRX4; no activation in tested range reported as III, read-out: Activity (EC50 μM)): < 50 µM | EC50 (MRGPRX4; read-out: Activity (EC50 μM), value in parentheses): 37 µM
